Settings: 101 kPa, Liquid

OCCO [1,2-ethanediol]
mass density [kg/m3]
Settings | Buoyancy - hydrostatic balance | Pycnometric method
273.15 K | 1127.2 | 1127.05
283.15 K | 1120.58 | 1120.5
293.15 K | 1113.84 | 1113.84
303.15 K | 1106.98 | 1107.07
313.15 K | 1099.99 | 1100.19
323.15 K | 1092.88 | 1093.2
333.15 K | 1085.65 | 1086.11
343.15 K | 1078.29 | 1078.91
353.15 K | 1070.8 | 1071.6
363.15 K | 1063.2 | 1064.18
373.15 K | 1055.47 | –
383.15 K | 1047.62 | –
393.15 K | 1039.64 | –
403.15 K | 1031.53 | –
413.15 K | 1023.31 | –
423.15 K | 1014.96 | –
433.15 K | 1006.48 | –
443.15 K | 997.88 | –
453.15 K | 989.16 | –
463.15 K | 980.31 | –
473.15 K | 971.34 | –

CC(O)CO (configuration not stated) [1,2-propanediol]
mass density [kg/m3]
Settings | Buoyancy - hydrostatic balance | Pycnometric method
273.15 K | 1051.77 | 1052.17
283.15 K | 1044.65 | 1044.74
293.15 K | 1037.13 | 1037.22
303.15 K | 1029.87 | 1029.64
313.15 K | 1022.37 | 1021.98
323.15 K | 1014.64 | 1014.25
333.15 K | 1006.75 | 1006.45
343.15 K | 998.71 | 998.57
353.15 K | 990.77 | 990.62
363.15 K | 982.38 | 982.6
373.15 K | 973.81 | –
383.15 K | 965.04 | –
393.15 K | 956.09 | –
403.15 K | 946.95 | –
413.15 K | 937.62 | –
423.15 K | 928.1 | –
433.15 K | 918.39 | –
443.15 K | 908.5 | –
453.15 K | 898.41 | –
463.15 K | 888.14 | –

CCCCCCC [heptane]
mass density [kg/m3]
Settings | 293.15 K | 301.62 K | 310.71 K | 319.85 K | 329.04 K | 338.26 K | 347.53 K | 356.84 K
Buoyancy - hydrostatic balance | 683.65 | 675.96 | 668.05 | 660.16 | 652.58 | 644.01 | 635.57 | 627.05
Pycnometric method | 683.67 | 675.75 | 667.37 | 659.85 | 651.92 | 644.32 | 635.91 | 627.85
